Measured values: patent US20170348371A1, “THE ANTI CANCEROUS, ANTIPARASITE (TOXOPLASMA GONDII (PROTOZOON) AND ANTIMICROBIAL EFFECT AND DOSAGE OF NIGELLA (NIGELLA SATIVA) EXTRACT” (priority 2014, published 2017)

How the values were obtained:
Hep2 cells = assay: MTT cytotoxicity test on Hep2 cell line; assay type: cell-based, Human
Excerpt: The oils of the plant as an extract are used which have been obtained by cold pressing and it has been ensured that the extract is fresh and pure. The extracts that have been obtained through the whole study have been initially diluted with solvents, filtered and sterilized. […] The maximum dose and dilution sub doses that have been determined accordingly have been repeated controlled groups. Different amounts of Hep2 cells have been tested in flat bottomed 96 well plates for cell culture during the first stage of the study and it has been determined that […] cells were optimal for the monolayer layer of 2×10^4 cell per well. A pure oil of Nigella plant extract, which has been tested inside various solvents in terms of penetration into cells and homogenous distribution. MTT tests have been carried out relating to Hep2 cells in solvents too. DMSO was selected from solvents such as DMSO and Methanol and was used and cytopathic doses have not been exceeded during the whole study (FIG. 2). Essential oil has been obtained from Nigella and emulsions have been obtained from fixed oil plants (Ginger etc.) and compounds.

Toxoplasma gondii = assay: ELISA test of efficiency against Toxoplasma gondii in infected Hep2 cells; assay type: cell-based; details: for ELISA OD value according to positive control (reproduction) / ELISA value in comparison to PK: 48 hours; for ELISA value: 72 hour plates
Excerpt: An ELISA (Enzyme-Linked Immunosorbent Assay) test (FIG. 4) has been planned and conducted in order to determine efficiency against Toxoplasma gondii.
The ELISA test has been carried out on flat bottom well plates having 96 wells. First of all the base of the plates have been covered with a suitable amount of Hep2 cells. […] Following this all wells have been processed again with different doses (determined with MTT) of Pyrimtheamine, Sulphadiazine and Nigella Sativa extract, prepared with DMSO.
The result was read by the ELISA reader device in 30 minutes

Compound: CCc1nc(N)nc(N)c1-c1ccc(Cl)cc1 [Pyrimethamine]
- OD value in MTT test (Hep2 cells; 1 μg/ml): 1,228
- OD value in MTT test (Hep2 cells; 2 μg/ml): 1,198
- OD value in MTT test (Hep2 cells; 4 μg/ml): 0.623
- OD value in MTT test (Hep2 cells; 8 μg/ml): 0.310
- OD value in MTT test (Hep2 cells; 16 μg/ml): 0.209
- OD value in MTT test (Hep2 cells; 32 μg/ml): 0.097
- ELISA OD value according to positive control (reproduction) (Toxoplasma gondii; 0.5 μg/ml): 75%
- ELISA OD value according to positive control (reproduction) (Toxoplasma gondii; 1 μg/ml (printed '2.1 and 0.5 μg/ml doses')): 54%
- ELISA OD value according to positive control (reproduction) (Toxoplasma gondii; 2 μg/ml (printed '2.1 and 0.5 μg/ml doses')): 56%
- ELISA OD value according to positive control (reproduction) (Toxoplasma gondii; 4 μg/ml): 45%
- ELISA value (Toxoplasma gondii; 4 μg/ml (1st dose)): 48%
- ELISA value (Toxoplasma gondii; 2nd dose of series starting from 4 μg/ml): 29%
- ELISA value (Toxoplasma gondii; 3rd dose of series starting from 4 μg/ml): 36%
- ELISA value (Toxoplasma gondii; 4th dose of series starting from 4 μg/ml): 41%
- ELISA value (Toxoplasma gondii; 5th dose of series starting from 4 μg/ml): 32%
- ELISA value (Toxoplasma gondii; 6th dose of series starting from 4 μg/ml): 27%
- ELISA value (Toxoplasma gondii; 7th dose of series starting from 4 μg/ml): 27%
- ELISA value (Toxoplasma gondii; 8th dose of series starting from 4 μg/ml): 73%

Compound: Nc1ccc(S(=O)(=O)Nc2ncccn2)cc1 [Sulphadiazine]
- OD value in MTT test (Hep2 cells; 50 μg/ml): 1,002
- OD value in MTT test (Hep2 cells; 100 μg/ml): 0.827
- OD value in MTT test (Hep2 cells; 200 μg/ml): 0.254
- ELISA value in comparison to PK (Toxoplasma gondii; 25 μg/ml): 80%
- ELISA value in comparison to PK (Toxoplasma gondii; 50 μg/ml): 97%
- ELISA value in comparison to PK (Toxoplasma gondii; 4th dose of series from 100 μg/ml (concentration not given)): 79%
- ELISA value in comparison to PK (Toxoplasma gondii; 5th dose of series from 100 μg/ml (concentration not given)): 61%
- ELISA value in comparison to PK (Toxoplasma gondii; 6th dose of series from 100 μg/ml (concentration not given)): 95%
- ELISA value in comparison to PK (Toxoplasma gondii; 7th dose of series from 100 μg/ml (concentration not given)): 84%
- ELISA value in comparison to PK (Toxoplasma gondii; 8th dose of series from 100 μg/ml (concentration not given)): 97%
- ELISA value in comparison to PK (Toxoplasma gondii; concentration of 100 (unit not given)): 51%
- ELISA value (Toxoplasma gondii; 100 μg/ml (1st dose)): 52%
- ELISA value (Toxoplasma gondii; 2nd dose of series starting from 100 μg/ml): 57%
- ELISA value (Toxoplasma gondii; 3rd dose of series starting from 100 μg/ml): 52%
- ELISA value (Toxoplasma gondii; 4th dose of series starting from 100 μg/ml): 77%
- ELISA value (Toxoplasma gondii; 5th dose of series starting from 100 μg/ml): 75%
- ELISA value (Toxoplasma gondii; 6th dose of series starting from 100 μg/ml): 55%
- ELISA value (Toxoplasma gondii; 7th dose of series starting from 100 μg/ml): 52%
- ELISA value (Toxoplasma gondii; 8th dose of series starting from 100 μg/ml): 84%
